Test results reported in patent US20220347175A1, “PYRIDAZINONE DERIVATIVE” (Sumitomo Dainippon Pharma Co., Ltd., priority 2018, published 2022).

How the values were obtained:
human Nav1.1 = biological target: T1, human Nav1.1 (Homo sapiens, UniProt P35498); assay: Amplification of Nav1.1-derived voltage-dependent sodium current (Nav1.1 current), cell line stably expressing human Nav1.1, automated patch clamp; type: cell-based
T1 construct: host or cells: HEK293
How it was run: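 Automated whole-cell voltage-clamp recordings used HEK293 cells stably expressing human Nav1.1, keeping only cells with >500 pA current, with currents evoked by ramp voltage. Compounds were applied in extracellular fluid with 1% DMSO, and amplification (%) was computed from peak current or AUC after versus before addition.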

human Nav1.5 = biological target: T2, human Nav1.5 (Homo sapiens, UniProt Q14524); assay: Amplification of Nav1.5-derived voltage-dependent sodium current (Nav1.5 current), cell line stably expressing human Nav1.5, automated patch clamp; type: cell-based
T2 construct: expressed in transfected cells; host or cells: CHO-K1 (T-REx System, ThermoFisher Scientific)
Method: Test 2: Evaluation of the Amplification in Nav1.5-Derived Voltage-Dependent Sodium Current (Nav1.5 Current) by Using a Cell Line Stably Expressing Human Nav1.5
A CHO-K1 cell line (Chinese hamster ovary) stably expressing human Nav1.5 (Gene Bank Accession No: P000326.2) was obtained by using purchased T-Rex System (ThermoFisher Scientific, USA), and used for the present test. The effect of test compounds on the amplification of Nav1.5 current was evaluated by using a cell line stably expressing human Nav1.5 and HTS automated patch clamp system, similarly in the method using Nav1.1. In other words, test compounds were added in an extracellular fluid which contained 1% DMSO and 500 nmol/L Tetrodotoxin (TTX), and evaluated as a change of the peak value of Nav1.5 current and the area under the curve (AUC). The induction and the measurement of Nav1.5 current, the pharmacologic effect on Nav1.5 current, and a method for pharmacological evaluation were carried out by the same method as in Nav1.1.

[1] = compound 1 μmol/L, HEK293 stably expressing human Nav1.1
[2] = compound 1 μmol/L, CHO-K1 stably expressing human Nav1.5
[3] = compound 3 μmol/L, HEK293 stably expressing human Nav1.1
[4] = compound 3 μmol/L, CHO-K1 stably expressing human Nav1.5
[5] = 10 μmol/L compound, change of the area under the curve of Nav1.1 current (Test Result 1)
[6] = 10 μmol/L compound, change of the area under the curve of Nav1.5 current (Test Result 1)
[7] = 10 μmol/L compound, change of the area under the curve of Nav1.1 current (Test Result 1), read-out: Nav1.1 current amplification rate (%)
[8] = 10 μmol/L compound, change of the area under the curve of Nav1.5 current (Test Result 1), read-out: Nav1.5 current amplification rate (%)

T2 sequence (Q14524 1-2015 isoform Q14524-2): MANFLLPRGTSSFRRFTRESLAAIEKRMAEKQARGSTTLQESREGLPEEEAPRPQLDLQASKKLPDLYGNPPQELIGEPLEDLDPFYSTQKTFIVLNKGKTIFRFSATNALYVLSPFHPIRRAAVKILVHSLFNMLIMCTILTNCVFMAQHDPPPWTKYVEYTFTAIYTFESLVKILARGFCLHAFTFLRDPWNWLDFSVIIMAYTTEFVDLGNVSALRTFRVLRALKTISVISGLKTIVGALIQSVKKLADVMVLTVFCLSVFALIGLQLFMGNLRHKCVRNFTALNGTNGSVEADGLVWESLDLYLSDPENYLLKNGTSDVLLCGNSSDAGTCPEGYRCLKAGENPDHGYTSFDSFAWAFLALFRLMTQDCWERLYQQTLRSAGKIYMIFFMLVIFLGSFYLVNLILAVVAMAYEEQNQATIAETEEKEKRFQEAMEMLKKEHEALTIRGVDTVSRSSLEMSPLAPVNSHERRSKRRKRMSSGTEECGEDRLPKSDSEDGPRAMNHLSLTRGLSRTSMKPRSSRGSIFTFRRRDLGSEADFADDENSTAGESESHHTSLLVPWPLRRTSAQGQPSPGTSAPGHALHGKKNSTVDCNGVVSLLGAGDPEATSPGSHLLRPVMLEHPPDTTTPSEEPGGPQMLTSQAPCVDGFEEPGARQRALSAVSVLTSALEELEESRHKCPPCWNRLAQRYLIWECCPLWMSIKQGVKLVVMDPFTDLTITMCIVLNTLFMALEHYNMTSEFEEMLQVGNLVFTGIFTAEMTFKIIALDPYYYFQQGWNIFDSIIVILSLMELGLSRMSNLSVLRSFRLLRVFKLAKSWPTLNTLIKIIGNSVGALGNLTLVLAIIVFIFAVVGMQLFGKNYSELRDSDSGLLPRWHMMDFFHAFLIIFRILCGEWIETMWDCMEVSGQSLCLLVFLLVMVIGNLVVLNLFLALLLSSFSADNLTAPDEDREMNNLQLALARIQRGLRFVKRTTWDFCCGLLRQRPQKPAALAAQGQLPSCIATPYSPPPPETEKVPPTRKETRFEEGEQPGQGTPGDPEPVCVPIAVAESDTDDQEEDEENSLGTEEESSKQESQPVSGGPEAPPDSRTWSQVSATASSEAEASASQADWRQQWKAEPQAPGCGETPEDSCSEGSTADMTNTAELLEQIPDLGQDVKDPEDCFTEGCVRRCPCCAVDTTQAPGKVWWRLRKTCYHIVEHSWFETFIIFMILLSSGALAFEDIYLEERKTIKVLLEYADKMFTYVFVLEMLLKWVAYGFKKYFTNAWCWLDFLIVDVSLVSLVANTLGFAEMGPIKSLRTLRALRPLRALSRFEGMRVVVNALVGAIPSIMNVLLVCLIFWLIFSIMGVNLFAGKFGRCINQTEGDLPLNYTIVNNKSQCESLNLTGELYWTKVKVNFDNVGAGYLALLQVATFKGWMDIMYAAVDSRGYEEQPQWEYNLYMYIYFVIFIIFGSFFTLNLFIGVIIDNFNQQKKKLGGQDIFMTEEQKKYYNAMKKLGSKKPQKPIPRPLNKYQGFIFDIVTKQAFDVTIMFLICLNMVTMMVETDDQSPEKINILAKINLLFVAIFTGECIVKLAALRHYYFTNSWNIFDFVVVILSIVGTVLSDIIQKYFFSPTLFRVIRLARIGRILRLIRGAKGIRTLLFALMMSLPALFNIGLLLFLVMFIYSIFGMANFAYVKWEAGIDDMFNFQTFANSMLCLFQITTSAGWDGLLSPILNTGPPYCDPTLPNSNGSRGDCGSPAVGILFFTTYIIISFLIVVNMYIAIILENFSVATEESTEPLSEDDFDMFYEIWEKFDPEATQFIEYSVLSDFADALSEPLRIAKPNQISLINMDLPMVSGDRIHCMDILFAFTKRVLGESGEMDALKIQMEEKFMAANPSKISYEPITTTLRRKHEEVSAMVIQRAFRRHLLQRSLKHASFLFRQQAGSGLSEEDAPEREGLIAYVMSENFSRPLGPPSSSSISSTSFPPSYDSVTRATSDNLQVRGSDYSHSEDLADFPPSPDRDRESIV

CC1CC=C(c2ccc(=O)n(CC(=O)Nc3ccc4ncnn4c3)n2)CC1 (racemic) [Example 339]
Nav1.1 current amplification rate (%) (human Nav1.1; [1]): 127% | Nav1.5 current amplification rate (%) (human Nav1.5; [2]): 15%

CC1CC=C(c2ccc(=O)n(CC(=O)N3CCc4c(-c5cn[nH]c5)cccc43)n2)CC1 (racemic) [Example 254]
Nav1.1 current amplification rate (%) (human Nav1.1; [3]): 309% | Nav1.5 current amplification rate (%) (human Nav1.5; [4]): 74%

Cc1ccc(-c2nn(CC(=O)Nc3ccn4ccnc4c3)c(=O)c(C)c2C)cc1 [Example 156]
Nav1.1 current amplification rate (%) (human Nav1.1; [5]): 33% | Nav1.5 current amplification rate (%) (human Nav1.5; [6]): 4%

Cc1cc(N2CCC3(CCC3)C2)nn(CC(=O)Nc2ccc3c(c2)OCC3)c1=O [Example 202]
activation at 10 µM (human Nav1.1; [7]): 131% | activation at 10 µM (human Nav1.5; [8]): 3%

COc1ccc(N2CCN(C(=O)Cn3nc(C4=CCC(C(F)(F)F)CC4)ccc3=O)CC2)cn1 (stereo not shown) [Example 511]
activation at 3 µM (human Nav1.1; compound 3 μmol/L, HEK293 stably expressing human Nav1.1, read-out: Nav1.1 current amplification rate (%)): 37% | activation at 3 µM (human Nav1.5; compound 3 μmol/L, CHO-K1 stably expressing human Nav1.5, read-out: Nav1.5 current amplification rate (%)): 6%

CC1CC=C(c2ccc(=O)n(CC(=O)N3CCc4c(CO)cccc43)n2)CC1 (racemic) [Example 266]
Nav1.1 current amplification rate (%) (human Nav1.1; [3]): 108% | Nav1.5 current amplification rate (%) (human Nav1.5; [4]): 128%

CC1CC=C(c2ccc(=O)n(CC(=O)N3CCC(c4ccccc4)CC3)n2)CC1 (racemic) [Example 256]
Nav1.1 current amplification rate (%) (human Nav1.1; [5]): 36% | Nav1.5 current amplification rate (%) (human Nav1.5; [6]): −30%

CC1CCN(c2ccc(=O)n(CC(=O)Nc3ccc4nsnc4c3)n2)CC1 [Example 95]
Nav1.1 current amplification rate (%) (human Nav1.1; [5]): 221% | Nav1.5 current amplification rate (%) (human Nav1.5; [6]): 18%

CC1CCN(c2ccc(=O)n(CC(=O)Nc3ccc4c(c3)OCC4)n2)CC1 [Example 170]
activation at 10 µM (human Nav1.1; [7]): 107% | activation at 10 µM (human Nav1.5; [8]): 1%

CC1CC=C(c2ccc(=O)n(CC(=O)N3CCc4c(-c5ccn(C)n5)cccc43)n2)CC1 (racemic) [Example 252]
Nav1.1 current amplification rate (%) (human Nav1.1; [3]): 254% | Nav1.5 current amplification rate (%) (human Nav1.5; [4]): 31%

CC1CC=C(c2ccc(=O)n(CC(=O)Nc3ccc4oc(C(F)F)nc4c3)n2)CC1 (racemic) [Example 243]
Nav1.1 current amplification rate (%) (human Nav1.1; [5]): 276% | Nav1.5 current amplification rate (%) (human Nav1.5; [6]): 19%

Cc1cc(NC(=O)Cn2nc(C3=CCC(C)CC3)ccc2=O)cc2ncoc12 (racemic) [Example 323]
Nav1.1 current amplification rate (%) (human Nav1.1; [3]): 154% | Nav1.5 current amplification rate (%) (human Nav1.5; [4]): 11%

CC1CCN(c2ccc(=O)n(CC(=O)Nc3cccc(-c4nccs4)c3)n2)CC1 [Example 80]
Nav1.1 current amplification rate (%) (human Nav1.1; [5]): 131% | Nav1.5 current amplification rate (%) (human Nav1.5; [6]): -3%

CC1CCN(c2ccc(=O)n(CC(=O)Nc3cncc(Cl)c3)n2)CC1 [Example 63]
Nav1.1 current amplification rate (%) (human Nav1.1; [5]): 49% | Nav1.5 current amplification rate (%) (human Nav1.5; [6]): 3%

CC1CC=C(c2ccc(=O)n(CC(=O)N3CCc4c(C5CN(C)C5)cccc43)n2)CC1 (racemic) [Example 300]
Nav1.1 current amplification rate (%) (human Nav1.1; [3]): 140% | Nav1.5 current amplification rate (%) (human Nav1.5; [4]): 55%

O=C(Cn1nc(C2=CCCCC2)ccc1=O)N1CCc2c(-c3cncnc3)cccc21 [Example 522]
activation at 1 µM (human Nav1.1; compound 1 μmol/L, HEK293 stably expressing human Nav1.1, read-out: Nav1.1 current amplification rate (%)): 367% | activation at 1 µM (human Nav1.5; compound 1 μmol/L, CHO-K1 stably expressing human Nav1.5, read-out: Nav1.5 current amplification rate (%)): 25%

COc1cc(-c2cc(Cl)cs2)nn(CC(=O)N2CCc3c(N4CCOCC4)cccc32)c1=O [Example 479]
Nav1.1 current amplification rate (%) (human Nav1.1; [5]): 420% | Nav1.5 current amplification rate (%) (human Nav1.5; [6]): 135%

O=C(Cn1nc(N2CCC3(CCC3)C2)ccc1=O)Nc1ccc2scnc2c1 [Example 160]
activation at 10 µM (human Nav1.1; [7]): 324% | activation at 10 µM (human Nav1.5; [8]): 33%

Cc1c(N2CCC3(CCC3)C2)nn(CC(=O)N2CCc3c(N4CCOCC4)cccc32)c(=O)c1C [Example 226]
activation at 10 µM (human Nav1.1; [7]): 319% | activation at 10 µM (human Nav1.5; [8]): 71%

O=C(Cn1nc(C2=CCC3(CC2)CC3(F)F)ccc1=O)N1CCc2c(N3CCOCC3)cccc21 (racemic) [Example 478]
Nav1.1 current amplification rate (%) (human Nav1.1; [3]): 345% | Nav1.5 current amplification rate (%) (human Nav1.5; [4]): 23%

CC1(C)CC=C(c2ccc(=O)n(CC(=O)Nc3ccc4c(c3)OCC4)n2)CC1 [Example 426]
Nav1.1 current amplification rate (%) (human Nav1.1; [5]): 244% | Nav1.5 current amplification rate (%) (human Nav1.5; [6]): 20%

COc1nc2cc(NC(=O)Cn3nc(C4=CCC(C)CC4)ccc3=O)ccc2o1 (racemic) [Example 239]
Nav1.1 current amplification rate (%) (human Nav1.1; [5]): 310% | Nav1.5 current amplification rate (%) (human Nav1.5; [6]): 31%

CC1CC=C(c2ccc(=O)n(CC(=O)N3CCc4c(Cn5ccnc5)cccc43)n2)CC1 (racemic) [Example 286]
Nav1.1 current amplification rate (%) (human Nav1.1; [1]): 848% | Nav1.5 current amplification rate (%) (human Nav1.5; [2]): 579%
